Test results from the kinase profiling compilation of Christmann-Franck et al. (2016).

Experiments:
Experiment in all cases: KINOMEscan competition binding
Conditions in all cases: compound 10.0 µM
[1] = target: PDGFRB (human) (UniProt P09619)
[2] = target: PRKD1 (human) (UniProt Q15139)
[3] = target: MAP3K10 (human) (UniProt Q02779)
[4] = target: TXK (human) (UniProt P42681)
[5] = target: PLK4 (human) (UniProt O00444)
[6] = target: PHKG1 (human) (UniProt Q16816)
[7] = target: CAMK2D (human) (UniProt Q13557)
[8] = system: LRRK2 (human), Q5S007 [G2019S]
[9] = target: CDC42BPA (human) (UniProt Q5VT25)
[10] = target: MARK1 (human) (UniProt Q9P0L2)
[11] = target: GRK4 (human) (UniProt P32298)
[12] = target: STK16 (human) (UniProt O75716)
[13] = target: CDK9 (human) (UniProt P50750)
[14] = target: GRK1 (human) (UniProt Q15835)
[15] = target: TTK (human) (UniProt P33981)
[16] = system: FLT3 (human), P36888 [D835Y]
[17] = target: PRKAA1 (human) (UniProt Q13131)
[18] = target: STK35 (human) (UniProt Q8TDR2)
[19] = target: AURKC (human) (UniProt Q9UQB9)
[20] = target: CLK3 (human) (UniProt P49761)
[21] = target: STK38 (human) (UniProt Q15208)
[22] = target: NEK3 (human) (UniProt P51956)
[23] = target: PAK1 (human) (UniProt Q13153)
[24] = target: BRSK1 (human) (UniProt Q8TDC3)
[25] = target: NEK11 (human) (UniProt Q8NG66)
[26] = target: NEK4 (human) (UniProt P51957)
[27] = target: ADCK3 (human) (UniProt Q8NI60)
[28] = target: MAPK3 (human) (UniProt P27361)
[29] = target: MYO3A (human) (UniProt Q8NEV4)
[30] = target: MAP3K12 (human) (UniProt Q12852)
[31] = target: CDK17 (human) (UniProt Q00537)
[32] = system: FGFR3 (human), P22607 [G697C]
[33] = target: TNNI3K (human) (UniProt Q59H18)
[34] = target: PRKCH (human) (UniProt P24723)
[35] = target: TLK2 (human) (UniProt Q86UE8)
[36] = target: DDR2 (human) (UniProt Q16832)
[37] = target: PRKCE (human) (UniProt Q02156)
[38] = target: FLT3 (human) (UniProt P36888)
[39] = target: RPS6KA1 KD1 (human) (UniProt Q15418)
[40] = system: EGFR (human), P00533 [G719C]

Sequence of RPS6KA1 KD1 (human) (Q15418 whole entry, looked up): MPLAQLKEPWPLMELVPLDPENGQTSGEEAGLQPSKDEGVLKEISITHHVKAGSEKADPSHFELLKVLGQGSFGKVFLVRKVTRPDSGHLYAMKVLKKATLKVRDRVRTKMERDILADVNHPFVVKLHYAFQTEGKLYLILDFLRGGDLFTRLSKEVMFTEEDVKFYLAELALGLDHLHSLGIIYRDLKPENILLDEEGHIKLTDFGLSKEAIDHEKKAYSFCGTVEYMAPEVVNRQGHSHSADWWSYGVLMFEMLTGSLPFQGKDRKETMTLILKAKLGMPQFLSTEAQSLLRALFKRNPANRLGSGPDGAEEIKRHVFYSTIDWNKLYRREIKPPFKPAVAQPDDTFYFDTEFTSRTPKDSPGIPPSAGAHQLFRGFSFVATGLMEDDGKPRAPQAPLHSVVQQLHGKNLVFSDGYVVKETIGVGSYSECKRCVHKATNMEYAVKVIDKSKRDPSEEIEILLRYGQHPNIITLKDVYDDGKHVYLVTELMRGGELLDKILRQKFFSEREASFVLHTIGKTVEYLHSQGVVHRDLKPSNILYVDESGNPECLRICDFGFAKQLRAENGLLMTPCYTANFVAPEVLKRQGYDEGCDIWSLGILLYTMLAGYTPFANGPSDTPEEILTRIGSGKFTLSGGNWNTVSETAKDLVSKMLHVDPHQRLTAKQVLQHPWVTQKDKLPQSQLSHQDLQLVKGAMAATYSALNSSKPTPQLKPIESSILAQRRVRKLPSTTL
Sequence of TLK2 (human) (Q86UE8 whole entry, looked up): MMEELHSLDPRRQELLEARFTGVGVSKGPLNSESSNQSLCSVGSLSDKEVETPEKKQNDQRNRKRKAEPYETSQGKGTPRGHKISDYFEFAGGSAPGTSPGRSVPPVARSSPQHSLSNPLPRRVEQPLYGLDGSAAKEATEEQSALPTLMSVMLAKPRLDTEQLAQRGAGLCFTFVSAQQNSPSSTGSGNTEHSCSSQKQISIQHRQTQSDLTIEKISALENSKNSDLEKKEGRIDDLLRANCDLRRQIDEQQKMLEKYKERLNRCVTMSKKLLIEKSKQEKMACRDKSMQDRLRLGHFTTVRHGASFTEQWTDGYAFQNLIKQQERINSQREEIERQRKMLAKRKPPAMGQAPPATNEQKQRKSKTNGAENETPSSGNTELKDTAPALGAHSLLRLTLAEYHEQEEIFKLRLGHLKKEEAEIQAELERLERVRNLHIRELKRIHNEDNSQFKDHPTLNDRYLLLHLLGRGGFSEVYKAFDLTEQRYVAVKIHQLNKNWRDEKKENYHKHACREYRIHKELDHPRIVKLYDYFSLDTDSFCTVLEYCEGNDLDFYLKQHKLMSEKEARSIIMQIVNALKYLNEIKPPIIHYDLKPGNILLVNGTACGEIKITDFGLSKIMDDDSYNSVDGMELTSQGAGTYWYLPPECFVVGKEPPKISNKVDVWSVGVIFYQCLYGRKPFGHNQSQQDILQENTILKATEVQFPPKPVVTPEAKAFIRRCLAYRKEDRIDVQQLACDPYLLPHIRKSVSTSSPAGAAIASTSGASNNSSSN
Sequence of NEK3 (human) (P51956 whole entry, looked up): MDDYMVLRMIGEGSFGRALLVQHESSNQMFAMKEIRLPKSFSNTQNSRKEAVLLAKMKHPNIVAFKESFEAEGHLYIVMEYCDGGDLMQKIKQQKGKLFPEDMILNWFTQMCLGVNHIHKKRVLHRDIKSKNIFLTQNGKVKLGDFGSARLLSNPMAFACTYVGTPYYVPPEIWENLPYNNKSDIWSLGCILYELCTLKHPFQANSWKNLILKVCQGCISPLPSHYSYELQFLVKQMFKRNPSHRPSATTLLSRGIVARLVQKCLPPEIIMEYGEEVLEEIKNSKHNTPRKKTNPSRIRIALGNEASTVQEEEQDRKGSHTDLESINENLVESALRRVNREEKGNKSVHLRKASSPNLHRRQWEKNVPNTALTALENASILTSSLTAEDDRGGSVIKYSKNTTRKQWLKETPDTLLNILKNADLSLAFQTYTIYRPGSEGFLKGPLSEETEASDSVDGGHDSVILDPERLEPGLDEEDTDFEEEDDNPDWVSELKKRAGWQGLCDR
Sequence of PRKCE (human) (Q02156 whole entry, looked up): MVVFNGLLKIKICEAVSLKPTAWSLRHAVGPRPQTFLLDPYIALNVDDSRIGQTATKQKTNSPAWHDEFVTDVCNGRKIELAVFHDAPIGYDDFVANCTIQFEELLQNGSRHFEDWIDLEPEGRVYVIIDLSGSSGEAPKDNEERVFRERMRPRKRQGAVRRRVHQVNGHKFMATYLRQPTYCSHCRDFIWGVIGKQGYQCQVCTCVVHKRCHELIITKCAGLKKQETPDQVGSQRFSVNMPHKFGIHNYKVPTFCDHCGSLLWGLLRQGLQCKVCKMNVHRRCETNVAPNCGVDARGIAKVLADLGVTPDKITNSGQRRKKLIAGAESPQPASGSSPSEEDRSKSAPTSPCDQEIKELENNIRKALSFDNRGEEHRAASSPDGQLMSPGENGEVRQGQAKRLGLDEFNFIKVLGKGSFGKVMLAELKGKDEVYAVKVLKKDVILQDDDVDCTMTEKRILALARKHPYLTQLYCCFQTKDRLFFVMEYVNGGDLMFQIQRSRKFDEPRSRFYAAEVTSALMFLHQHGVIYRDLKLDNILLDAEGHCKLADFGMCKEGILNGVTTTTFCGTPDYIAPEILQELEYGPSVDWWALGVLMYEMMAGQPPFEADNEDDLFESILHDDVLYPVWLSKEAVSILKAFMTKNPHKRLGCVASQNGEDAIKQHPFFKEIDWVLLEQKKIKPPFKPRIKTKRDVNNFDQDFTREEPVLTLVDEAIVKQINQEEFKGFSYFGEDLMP
Sequence of PDGFRB (human) (P09619 whole entry, looked up): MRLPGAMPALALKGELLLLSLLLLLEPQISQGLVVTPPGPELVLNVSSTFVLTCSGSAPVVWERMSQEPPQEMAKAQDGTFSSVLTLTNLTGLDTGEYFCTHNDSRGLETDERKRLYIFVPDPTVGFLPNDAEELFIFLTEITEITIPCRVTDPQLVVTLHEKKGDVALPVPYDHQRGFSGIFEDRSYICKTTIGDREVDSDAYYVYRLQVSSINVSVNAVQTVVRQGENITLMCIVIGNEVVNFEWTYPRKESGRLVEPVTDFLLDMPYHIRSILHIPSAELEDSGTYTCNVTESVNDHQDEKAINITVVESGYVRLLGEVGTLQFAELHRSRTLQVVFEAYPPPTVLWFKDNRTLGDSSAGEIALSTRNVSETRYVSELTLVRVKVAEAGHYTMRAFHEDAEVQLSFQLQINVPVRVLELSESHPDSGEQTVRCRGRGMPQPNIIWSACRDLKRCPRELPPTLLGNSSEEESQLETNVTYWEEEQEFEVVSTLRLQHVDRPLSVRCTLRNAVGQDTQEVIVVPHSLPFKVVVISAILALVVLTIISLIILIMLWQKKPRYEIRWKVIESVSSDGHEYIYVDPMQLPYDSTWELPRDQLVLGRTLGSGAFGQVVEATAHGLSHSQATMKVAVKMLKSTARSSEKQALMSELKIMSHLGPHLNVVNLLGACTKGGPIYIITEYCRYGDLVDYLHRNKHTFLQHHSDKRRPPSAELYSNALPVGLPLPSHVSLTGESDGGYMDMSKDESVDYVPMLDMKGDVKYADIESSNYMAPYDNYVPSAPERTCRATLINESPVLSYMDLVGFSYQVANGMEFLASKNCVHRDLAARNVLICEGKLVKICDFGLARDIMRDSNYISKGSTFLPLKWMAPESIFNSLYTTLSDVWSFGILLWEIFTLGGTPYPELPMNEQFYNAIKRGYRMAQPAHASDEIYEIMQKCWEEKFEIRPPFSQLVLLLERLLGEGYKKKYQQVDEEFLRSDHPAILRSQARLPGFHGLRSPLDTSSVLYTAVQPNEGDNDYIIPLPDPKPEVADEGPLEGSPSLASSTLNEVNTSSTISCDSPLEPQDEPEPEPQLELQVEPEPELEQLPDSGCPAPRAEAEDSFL
Sequence of FGFR3 (human), P22607 [G697C] (P22607 whole entry G697C, looked up): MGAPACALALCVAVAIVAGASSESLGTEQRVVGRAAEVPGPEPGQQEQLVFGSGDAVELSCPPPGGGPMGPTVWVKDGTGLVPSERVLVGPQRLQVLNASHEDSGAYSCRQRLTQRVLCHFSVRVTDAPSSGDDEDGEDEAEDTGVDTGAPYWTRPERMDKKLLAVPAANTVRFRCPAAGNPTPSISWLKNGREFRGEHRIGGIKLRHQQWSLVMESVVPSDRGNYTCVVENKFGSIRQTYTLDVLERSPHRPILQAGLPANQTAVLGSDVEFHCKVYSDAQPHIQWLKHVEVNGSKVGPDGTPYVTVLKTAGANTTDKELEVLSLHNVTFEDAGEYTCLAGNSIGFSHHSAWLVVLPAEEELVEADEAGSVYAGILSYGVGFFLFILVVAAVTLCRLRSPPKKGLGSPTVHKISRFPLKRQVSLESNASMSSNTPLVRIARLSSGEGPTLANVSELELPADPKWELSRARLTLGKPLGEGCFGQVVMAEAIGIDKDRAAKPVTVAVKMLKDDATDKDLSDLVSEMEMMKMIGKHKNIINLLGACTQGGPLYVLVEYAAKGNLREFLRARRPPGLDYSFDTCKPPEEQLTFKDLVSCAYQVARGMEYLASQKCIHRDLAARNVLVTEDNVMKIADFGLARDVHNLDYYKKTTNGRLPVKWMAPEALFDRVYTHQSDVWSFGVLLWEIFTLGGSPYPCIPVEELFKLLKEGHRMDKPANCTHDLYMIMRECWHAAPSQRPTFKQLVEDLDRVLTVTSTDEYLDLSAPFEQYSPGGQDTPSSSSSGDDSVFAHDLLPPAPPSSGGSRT
Sequence of STK16 (human) (O75716 whole entry, looked up): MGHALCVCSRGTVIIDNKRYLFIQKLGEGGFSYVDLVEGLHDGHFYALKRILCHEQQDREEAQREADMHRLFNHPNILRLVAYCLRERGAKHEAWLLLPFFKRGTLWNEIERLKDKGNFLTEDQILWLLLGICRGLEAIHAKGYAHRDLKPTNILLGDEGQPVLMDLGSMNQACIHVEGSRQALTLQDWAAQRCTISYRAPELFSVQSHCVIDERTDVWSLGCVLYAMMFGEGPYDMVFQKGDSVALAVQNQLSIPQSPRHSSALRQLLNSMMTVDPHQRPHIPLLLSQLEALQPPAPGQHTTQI

Row | Compound | kinase still bound, per cent of control [1] [%] | kinase still bound, per cent of control [2] [%] | kinase still bound, per cent of control [3] [%] | kinase still bound, per cent of control [4] [%] | kinase still bound, per cent of control [5] [%] | kinase still bound, per cent of control [6] [%] | kinase still bound, per cent of control [7] [%] | kinase still bound, per cent of control [8] [%] | kinase still bound, per cent of control [9] [%] | kinase still bound, per cent of control [10] [%] | kinase still bound, per cent of control [11] [%] | kinase still bound, per cent of control [12] [%] | kinase still bound, per cent of control [13] [%] | kinase still bound, per cent of control [14] [%] | kinase still bound, per cent of control [15] [%] | kinase still bound, per cent of control [17] [%] | kinase still bound, per cent of control [18] [%] | kinase still bound, per cent of control [19] [%] | kinase still bound, per cent of control [20] [%] | kinase still bound, per cent of control [21] [%] | further results
1 | C=CC(=O)Nc1ccc(C(=O)c2sc(Nc3ccc(N4CCN(C)CC4)cc3OC)nc2N)cc1 | 54 | 39 | 91 | 100 | 43 | 7.4 | 2.1 | 1.5 | 100 | 93 | 52 | 50 | 85 | 100 | 0.7 | 100 | 94 | 68 | 8.9 | 67 | kinase still bound, per cent of control [16]: 23%; kinase still bound, per cent of control [22]: 70%; kinase still bound, per cent of control [23]: 73%; kinase still bound, per cent of control [24]: 98%; kinase still bound, per cent of control [25]: 68%; kinase still bound, per cent of control [26]: 97%; kinase still bound, per cent of control [27]: 42%; kinase still bound, per cent of control [28]: 100%; kinase still bound, per cent of control [29]: 35%; kinase still bound, per cent of control [30]: 79%; kinase still bound, per cent of control [31]: 78%; kinase still bound, per cent of control [32]: 77%; kinase still bound, per cent of control [33]: 89%; kinase still bound, per cent of control [34]: 100%; kinase still bound, per cent of control [35]: 83%; kinase still bound, per cent of control [36]: 100%; kinase still bound, per cent of control [37]: 81%; kinase still bound, per cent of control [38]: 73%; kinase still bound, per cent of control [39]: 24%; kinase still bound, per cent of control [40]: 3%
2 | N#C/C(=C1/Nc2ccccc2S1)c1ccnc(NCCc2cccnc2)n1 | 64 | 100 | 85 | 61 | 68 | 100 | 64 | 74 | 83 | 100 | 32 | 13 | 60 | 100 | 62 | 100 | 85 | 67 | 76 | 91 | kinase still bound, per cent of control [16]: 53%; kinase still bound, per cent of control [22]: 58%; kinase still bound, per cent of control [23]: 77%; kinase still bound, per cent of control [24]: 85%; kinase still bound, per cent of control [25]: 100%; kinase still bound, per cent of control [26]: 100%; kinase still bound, per cent of control [27]: 91%; kinase still bound, per cent of control [28]: 100%; kinase still bound, per cent of control [29]: 80%; kinase still bound, per cent of control [30]: 81%; kinase still bound, per cent of control [31]: 98%; kinase still bound, per cent of control [32]: 100%; kinase still bound, per cent of control [33]: 93%; kinase still bound, per cent of control [34]: 100%; kinase still bound, per cent of control [35]: 75%; kinase still bound, per cent of control [36]: 100%; kinase still bound, per cent of control [37]: 92%; kinase still bound, per cent of control [38]: 100%; kinase still bound, per cent of control [39]: 83%
3 | CCc1nc(-c2cccc(C)c2)c(-c2ccnc(NC(=O)c3ccccc3)c2)s1 | 34 | 65 | 100 | 75 | 100 | 100 | 100 | 100 | 82 | 100 | 100 | 74 | 95 | 100 | 70 | 81 | 76 | 90 | 78 | 100 | kinase still bound, per cent of control [22]: 100%; kinase still bound, per cent of control [23]: 76%; kinase still bound, per cent of control [24]: 93%; kinase still bound, per cent of control [25]: 100%; kinase still bound, per cent of control [26]: 100%; kinase still bound, per cent of control [27]: 0.2%; kinase still bound, per cent of control [28]: 98%; kinase still bound, per cent of control [29]: 60%; kinase still bound, per cent of control [30]: 100%; kinase still bound, per cent of control [31]: 99%; kinase still bound, per cent of control [32]: 93%; kinase still bound, per cent of control [33]: 86%; kinase still bound, per cent of control [34]: 88%; kinase still bound, per cent of control [35]: 87%; kinase still bound, per cent of control [36]: 16%; kinase still bound, per cent of control [37]: 87%; kinase still bound, per cent of control [38]: 17%; kinase still bound, per cent of control [39]: 89%
